Data published in ChEMBL document CHEMBL5257016, “Rho Kinase (ROCK) Inhibitors and Their Therapeutic Potential” (J Med Chem, 2016).

Tests used:
[1] = biological target: cAMP-dependent protein kinase (PKA) (Homo sapiens, UniProt P22694+P17612+P22612); assay: Inhibition of PKA (unknown origin); type: protein assay
[2] = biological target: T1, Rho-associated protein kinase 2 (Homo sapiens, UniProt O75116); assay: Inhibition of ROCK2 (unknown origin) using STK2 as substrate incubated for 4 hrs by HTRF assay
T1 sequence (O75116 whole entry): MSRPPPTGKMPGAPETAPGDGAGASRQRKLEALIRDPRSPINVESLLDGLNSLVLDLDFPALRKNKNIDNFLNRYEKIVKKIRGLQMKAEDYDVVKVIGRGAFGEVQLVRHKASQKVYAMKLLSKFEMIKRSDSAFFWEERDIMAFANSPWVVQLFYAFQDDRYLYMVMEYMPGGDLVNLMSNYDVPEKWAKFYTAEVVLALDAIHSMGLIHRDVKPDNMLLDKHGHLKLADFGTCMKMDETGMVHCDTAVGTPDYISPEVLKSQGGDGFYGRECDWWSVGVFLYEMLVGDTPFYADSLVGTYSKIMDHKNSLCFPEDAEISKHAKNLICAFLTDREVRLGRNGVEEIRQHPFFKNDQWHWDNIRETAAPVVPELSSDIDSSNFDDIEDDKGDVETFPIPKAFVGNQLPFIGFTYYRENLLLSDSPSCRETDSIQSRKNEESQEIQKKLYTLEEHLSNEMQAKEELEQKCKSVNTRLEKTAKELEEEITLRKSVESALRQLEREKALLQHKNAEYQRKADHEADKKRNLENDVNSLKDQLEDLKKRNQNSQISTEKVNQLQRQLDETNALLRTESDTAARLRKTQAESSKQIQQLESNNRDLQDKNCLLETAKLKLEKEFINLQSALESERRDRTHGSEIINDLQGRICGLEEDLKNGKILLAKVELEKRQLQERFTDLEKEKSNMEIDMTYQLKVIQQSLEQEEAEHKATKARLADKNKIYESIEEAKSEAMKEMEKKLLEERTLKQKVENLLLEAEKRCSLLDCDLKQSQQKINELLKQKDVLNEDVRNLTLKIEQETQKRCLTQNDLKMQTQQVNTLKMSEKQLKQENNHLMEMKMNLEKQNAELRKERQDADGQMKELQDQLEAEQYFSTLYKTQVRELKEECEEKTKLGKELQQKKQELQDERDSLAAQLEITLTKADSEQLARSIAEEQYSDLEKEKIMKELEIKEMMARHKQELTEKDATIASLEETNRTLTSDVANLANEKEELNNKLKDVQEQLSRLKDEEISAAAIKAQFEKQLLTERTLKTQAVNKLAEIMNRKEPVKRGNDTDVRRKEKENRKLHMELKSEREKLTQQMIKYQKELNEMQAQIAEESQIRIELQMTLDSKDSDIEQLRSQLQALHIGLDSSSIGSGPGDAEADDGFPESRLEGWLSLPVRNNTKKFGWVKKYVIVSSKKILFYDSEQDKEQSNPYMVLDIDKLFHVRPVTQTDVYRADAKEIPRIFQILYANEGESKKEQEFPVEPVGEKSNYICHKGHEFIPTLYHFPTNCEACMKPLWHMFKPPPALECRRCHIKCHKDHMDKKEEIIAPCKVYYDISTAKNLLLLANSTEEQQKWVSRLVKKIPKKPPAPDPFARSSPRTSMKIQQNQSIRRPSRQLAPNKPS

[3] = biological target: T2, Rho-associated protein kinase 1 (Homo sapiens, UniProt Q13464); assay: Inhibition of human ROCK1
T2 sequence (Q13464 whole entry): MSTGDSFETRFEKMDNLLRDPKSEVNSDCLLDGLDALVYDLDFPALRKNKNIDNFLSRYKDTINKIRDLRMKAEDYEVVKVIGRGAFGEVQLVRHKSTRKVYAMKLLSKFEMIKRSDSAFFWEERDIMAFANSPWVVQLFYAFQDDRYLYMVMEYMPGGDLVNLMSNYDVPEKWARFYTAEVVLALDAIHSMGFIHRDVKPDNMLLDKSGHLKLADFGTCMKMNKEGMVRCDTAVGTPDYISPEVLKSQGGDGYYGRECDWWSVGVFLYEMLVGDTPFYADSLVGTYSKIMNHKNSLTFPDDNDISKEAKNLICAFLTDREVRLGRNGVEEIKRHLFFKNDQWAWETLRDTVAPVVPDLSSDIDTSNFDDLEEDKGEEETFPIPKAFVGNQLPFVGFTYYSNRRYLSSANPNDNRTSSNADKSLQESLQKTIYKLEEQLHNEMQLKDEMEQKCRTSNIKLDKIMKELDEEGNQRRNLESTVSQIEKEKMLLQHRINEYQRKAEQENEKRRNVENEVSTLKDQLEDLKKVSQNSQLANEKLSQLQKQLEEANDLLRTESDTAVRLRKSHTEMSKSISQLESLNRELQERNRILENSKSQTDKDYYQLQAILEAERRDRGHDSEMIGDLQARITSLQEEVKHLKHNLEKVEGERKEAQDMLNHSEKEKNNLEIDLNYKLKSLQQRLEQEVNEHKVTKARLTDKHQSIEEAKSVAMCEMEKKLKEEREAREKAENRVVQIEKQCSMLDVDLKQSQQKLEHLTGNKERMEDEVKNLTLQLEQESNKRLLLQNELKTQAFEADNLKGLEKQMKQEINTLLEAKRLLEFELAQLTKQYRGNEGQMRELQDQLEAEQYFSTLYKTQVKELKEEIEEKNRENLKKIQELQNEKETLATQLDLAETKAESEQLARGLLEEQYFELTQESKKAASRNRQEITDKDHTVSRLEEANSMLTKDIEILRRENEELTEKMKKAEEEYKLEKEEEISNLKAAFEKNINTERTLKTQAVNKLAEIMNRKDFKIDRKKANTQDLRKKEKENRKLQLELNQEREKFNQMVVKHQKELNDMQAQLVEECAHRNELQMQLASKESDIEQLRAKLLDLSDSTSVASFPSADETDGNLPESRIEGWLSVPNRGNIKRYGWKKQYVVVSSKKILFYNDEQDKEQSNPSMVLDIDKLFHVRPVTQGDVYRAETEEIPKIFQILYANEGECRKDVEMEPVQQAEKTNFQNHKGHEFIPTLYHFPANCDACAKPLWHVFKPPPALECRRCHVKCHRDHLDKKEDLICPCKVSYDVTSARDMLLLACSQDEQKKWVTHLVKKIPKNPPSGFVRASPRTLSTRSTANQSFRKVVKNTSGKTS

[4] = biological target: T1, Rho-associated protein kinase 2; assay: Inhibition of ROCK2 (unknown origin)
[5] = biological target: T2, Rho-associated protein kinase 1; assay: Inhibition of ROCK1 (unknown origin)
Mus musculus [6] = species: Mus musculus; assay: Antidiabetic activity in oxygen induced retinopathy mouse model assessed as decrease in fluorescein leakage at 0.8 %, thrice daily for 6 days by fluorescein angiography; type: functional; design: scale not given: the % may be the effect or the level left; settings: time 6 day
Mus musculus [7] = species: Mus musculus; assay: Antidiabetic activity in oxygen induced retinopathy mouse model assessed as decrease in pathological neovascularization at 0.8 %, thrice daily for 6 days by microscopic analysis; type: functional; design: scale not given: the % may be the effect or the level left; settings: time 6 day
Mus musculus [8] = species: Mus musculus; assay: Antidiabetic activity in oxygen induced retinopathy mouse model assessed as decrease in pathological neovascularization at 0.4 %, thrice daily for 6 days by microscopic analysis; type: functional; design: scale not given: the % may be the effect or the level left; settings: time 6 day
[9] = biological target: T2, Rho-associated protein kinase 1; assay: Inhibition of GST-tagged ROCK1 (1 to 535 residues) (unknown origin) using S6-peptide as substrate preincubated for 15 mins followed by 33P-ATP addition and measured after 120 mins by scintillation counter analysis
[10] = biological target: T1, Rho-associated protein kinase 2; assay: Inhibition of GST-tagged ROCK2 (5 to 554 residues) (unknown origin) using S6-peptide as substrate preincubated for 15 mins followed by 33P-ATP addition and measured after 120 mins by scintillation counter analysis
[11] = biological target: T1, Rho-associated protein kinase 2; assay: Inhibition of ROCK2 (unknown origin) assessed as inhibition constant
[12] = biological target: T2, Rho-associated protein kinase 1; assay: Inhibition of ROCK1 (unknown origin) assessed as inhibition constant
[13] = biological target: T2, Rho-associated protein kinase 1; assay: Inhibition of human recombinant ROCK1 using S6-peptide as substrate as substrate preincubated for 10 mins followed by 33P-labeled ATP addition and measured after 20 mins by Micro-Beta counter analysis
[14] = biological target: Nicotinamide phosphoribosyltransferase (Homo sapiens, UniProt P43490); assay: Inhibition of recombinant human C-terminally-His tagged NAMPT incubated for 2 to 3 hrs by TR-FRET assay
Sequence of Nicotinamide phosphoribosyltransferase (P43490 whole entry): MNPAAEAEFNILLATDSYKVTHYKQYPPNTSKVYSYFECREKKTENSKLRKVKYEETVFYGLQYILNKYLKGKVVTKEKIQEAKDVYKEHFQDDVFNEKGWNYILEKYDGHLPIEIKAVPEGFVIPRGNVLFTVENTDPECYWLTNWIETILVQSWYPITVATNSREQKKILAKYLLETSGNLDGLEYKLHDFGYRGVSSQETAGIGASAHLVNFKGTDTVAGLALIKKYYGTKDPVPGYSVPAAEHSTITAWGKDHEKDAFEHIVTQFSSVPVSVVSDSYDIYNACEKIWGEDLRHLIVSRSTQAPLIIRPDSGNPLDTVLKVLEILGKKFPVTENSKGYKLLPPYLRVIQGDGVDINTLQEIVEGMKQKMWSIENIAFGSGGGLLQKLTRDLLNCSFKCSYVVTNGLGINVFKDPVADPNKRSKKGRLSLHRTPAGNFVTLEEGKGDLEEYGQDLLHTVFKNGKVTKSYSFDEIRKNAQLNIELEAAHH

[15] = Induction of neurogenesis in human Embryonic stem cells assessed as cell proliferation incubated for 4 days by CellTiterGlo luminescence assay; type: functional, cell-based; settings: 96 h
[16] = biological target: Rho-associated protein kinase 2 (Rattus norvegicus, UniProt Q62868); assay: Inhibition of ROCK2 in rat A7R5 cells assessed as MLC phosphorylation at T18/S19 by ELISA; type: cell-based
Sequence of Rho-associated protein kinase 2 (Rattus norvegicus, UniProt Q62868) (Q62868 whole entry): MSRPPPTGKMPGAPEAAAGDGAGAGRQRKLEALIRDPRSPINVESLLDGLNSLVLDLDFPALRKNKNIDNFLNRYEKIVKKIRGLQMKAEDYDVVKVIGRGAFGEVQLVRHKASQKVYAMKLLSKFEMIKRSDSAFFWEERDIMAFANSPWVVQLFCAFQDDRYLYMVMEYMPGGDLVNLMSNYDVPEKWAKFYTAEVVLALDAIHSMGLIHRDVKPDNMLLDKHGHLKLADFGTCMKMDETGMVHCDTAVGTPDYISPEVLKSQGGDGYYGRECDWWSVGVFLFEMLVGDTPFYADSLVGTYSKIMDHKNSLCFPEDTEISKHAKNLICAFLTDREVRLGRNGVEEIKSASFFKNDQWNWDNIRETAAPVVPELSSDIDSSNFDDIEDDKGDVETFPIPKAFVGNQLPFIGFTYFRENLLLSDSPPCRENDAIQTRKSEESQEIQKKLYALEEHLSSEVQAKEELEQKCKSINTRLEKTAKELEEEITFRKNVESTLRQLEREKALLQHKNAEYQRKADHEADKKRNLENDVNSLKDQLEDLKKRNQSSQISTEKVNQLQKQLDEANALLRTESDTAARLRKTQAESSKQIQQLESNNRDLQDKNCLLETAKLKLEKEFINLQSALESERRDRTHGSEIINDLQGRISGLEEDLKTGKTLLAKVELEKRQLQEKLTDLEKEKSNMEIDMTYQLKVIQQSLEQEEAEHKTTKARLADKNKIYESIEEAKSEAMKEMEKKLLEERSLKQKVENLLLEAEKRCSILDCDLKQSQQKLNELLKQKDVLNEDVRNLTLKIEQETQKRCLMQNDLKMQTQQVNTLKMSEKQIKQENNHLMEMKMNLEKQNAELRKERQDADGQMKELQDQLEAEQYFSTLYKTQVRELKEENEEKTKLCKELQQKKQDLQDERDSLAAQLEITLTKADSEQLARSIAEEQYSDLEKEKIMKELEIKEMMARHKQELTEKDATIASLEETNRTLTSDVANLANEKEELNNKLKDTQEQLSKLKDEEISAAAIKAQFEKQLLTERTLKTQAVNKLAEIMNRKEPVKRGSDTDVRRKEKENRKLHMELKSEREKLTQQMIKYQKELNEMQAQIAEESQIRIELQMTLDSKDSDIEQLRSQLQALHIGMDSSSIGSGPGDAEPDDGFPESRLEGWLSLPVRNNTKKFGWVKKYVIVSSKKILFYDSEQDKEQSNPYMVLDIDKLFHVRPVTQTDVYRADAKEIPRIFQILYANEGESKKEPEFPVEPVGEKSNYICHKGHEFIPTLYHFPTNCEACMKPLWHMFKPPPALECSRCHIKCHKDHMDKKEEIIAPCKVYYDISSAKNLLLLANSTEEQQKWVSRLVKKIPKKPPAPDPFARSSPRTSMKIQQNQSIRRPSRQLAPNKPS

[17] = Stability of compound in human plasma assessed as half life at 1 uM by LC-MS/MS analysis; type: ADME, cell-free
[18] = biological target: T1, Rho-associated protein kinase 2; assay: Inhibition of ROCK2 (unknown origin) using 33P-ATP as substrate and measured after 120 mins by radiometric analysis
[19] = biological target: T1, Rho-associated protein kinase 2; assay: Inhibition of human recombinant ROCK2 using 5FAM-AKRRRLSSLRA-COOH as substrate preincubated for 10 mins followed by substrate addition in presence of ATP and measured after 45 mins by TR-FRET assay
[20] = biological target: RAC-alpha serine/threonine-protein kinase (Homo sapiens, UniProt P31749); assay: Inhibition of AKT1 (unknown origin)
[21] = biological target: RAC-beta serine/threonine-protein kinase (Homo sapiens, UniProt P31751); assay: Inhibition of AKT2 (unknown origin)
Sequence of RAC-beta serine/threonine-protein kinase (P31751 whole entry): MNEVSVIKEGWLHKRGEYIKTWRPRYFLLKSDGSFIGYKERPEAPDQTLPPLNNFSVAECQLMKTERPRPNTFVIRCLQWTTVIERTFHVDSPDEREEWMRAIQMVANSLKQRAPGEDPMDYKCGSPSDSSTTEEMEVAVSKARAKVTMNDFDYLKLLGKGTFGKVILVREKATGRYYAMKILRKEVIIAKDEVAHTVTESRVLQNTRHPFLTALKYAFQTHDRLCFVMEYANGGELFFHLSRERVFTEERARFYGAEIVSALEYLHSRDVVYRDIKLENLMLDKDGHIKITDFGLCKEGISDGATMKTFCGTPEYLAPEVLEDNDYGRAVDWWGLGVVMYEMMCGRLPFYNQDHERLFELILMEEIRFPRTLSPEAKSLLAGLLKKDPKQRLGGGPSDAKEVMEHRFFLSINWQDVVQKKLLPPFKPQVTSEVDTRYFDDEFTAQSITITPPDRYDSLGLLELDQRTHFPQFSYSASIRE

[22] = biological target: Ribosomal protein S6 kinase alpha-1 (Homo sapiens, UniProt Q15418); assay: Inhibition of RSK1 (unknown origin)
[23] = Inhibition of p70S6K (unknown origin); design: species or system Homo sapiens
[24] = Oral bioavailability of Wistar rat at 0.910 mg/kg and measured upto 7 hrs by HPLC/MS analysis; type: ADME, organism-based; settings: in vivo, dose 0.91 mg/kg
[25] = Half life of Wistar rat at 0.910 mg/kg, po and measured upto 7 hrs by HPLC/MS analysis; type: ADME, organism-based; settings: in vivo, dose 0.91 mg/kg
[26] = Clearance of Wistar rat at 0.910 mg/kg, po and measured upto 7 hrs by HPLC/MS analysis; type: ADME, organism-based; settings: in vivo, dose 0.91 mg/kg
[27] = biological target: T1, Rho-associated protein kinase 2; assay: Inhibition of human recombinant ROCK2 assessed as inhibition constant by microfluidic mobility shift method

## COc1cccc(CNC(=O)c2cc3ccc(-c4cn[nH]c4)cc3[nH]2)c1
[1]
  IC50: 6740 nM
[2]
  IC50: 1.6 nM

## COc1cccc(CNC(=O)c2c[nH]c3cc(-c4cn[nH]c4)ccc23)c1
[1]
  IC50: 3340 nM
[2]
  IC50: < 1 nM

## COc1cccc(CNC(=O)c2[nH]c3cc(-c4cn[nH]c4)ccc3c2CN(C)C)c1
[1]
  IC50: 1510 nM

## O=C(Nc1ccc(-c2ccncc2)cc1)N[C@@H](CO)c1ccccc1
[3]
  IC50: 85 nM

## O=C(NCc1c(Cl)cccc1Cl)Nc1ccc2[nH]ncc2c1
[4]
  IC50: 20 nM

## O=C(Nc1ccc(-c2cn[nH]c2)cc1)OCc1ccccc1
[1]
  IC50: > 20000 nM

## C[C@@H](N)c1ccc(C(=O)Nc2ccncc2)cc1
[4]
  IC50: 200 nM

## O=C(NCc1cccc(O)c1)Nc1nc(-c2ccncc2)cs1
[5]
  IC50: 14.5 nM

## C[C@H]1CNCCCN1S(=O)(=O)c1cccc2cncc(F)c12
Mus musculus [6]
  Activity: 58.4%
Mus musculus [7]
  Activity: 41.9%
Mus musculus [8]
  Activity: 23%

## NCc1ccc(Oc2ccc3c(c2)B(O)OC3)c(F)c1
[9]
  IC50: 810 nM
[10]
  IC50: 540 nM

## NCc1ccc(Oc2ccc3c(c2)B(O)OC3)c(Cl)c1
[9]
  IC50: 730 nM
[10]
  IC50: 340 nM

## OCCOc1cccc(CN2CC[C@@H](Nc3cccc4cnccc34)C2)c1
[11]
  Ki: 14 nM
[12]
  Ki: 5 nM

## C[C@@H](N)[C@H]1CC[C@H](C(=O)Nc2ccnc3[nH]ccc23)CC1
[11]
  Ki: 10 nM

## COc1cccc(CN(C(=O)c2n[nH]c3cc(-c4cn[nH]c4)ccc23)C2CC2)c1
[1]
  IC50: > 20000 nM
[2]
  IC50: 6 nM

## Nc1nc(Nc2ccc(Oc3ccc4[nH]ncc4c3)c(F)c2)cc(-c2ccncc2)n1
[13]
  IC50: 20 nM

## COc1cccc(CN(CCN(C)C)C(=O)c2n[nH]c3cc(-c4cn[nH]c4)ccc23)c1
[1]
  IC50: 184 nM
[2]
  IC50: < 1 nM

## COc1cccc(CNC(=O)c2nc3ccc(-c4cn[nH]c4)cc3[nH]2)c1
[1]
  IC50: 1530 nM
[2]
  IC50: 4 nM

## N#Cc1c[nH]c2nccc(Oc3c(F)cc(Nc4ccnc(N)n4)cc3F)c12
[4]
  IC50: 1 nM

## O=C(Nc1ccc(-c2n[nH]c(=O)c3c2CCCC3)cc1)N1Cc2ccc(Cl)cc2C1
[14]
  IC50: 44 nM

## COc1cc(-c2cn[nH]c2)ccc1NC(=O)CCc1ccccc1
[15]
  IC50: 84 nM

## COc1cccc(CNC(=O)c2cc3cc(-c4cn[nH]c4)ccc3[nH]2)c1
[1]
  IC50: > 20000 nM
[2]
  IC50: 17 nM

## O=C(Nc1ccc(-c2n[nH]c(=O)c3c2CCCC3)cc1)N1Cc2ccc(F)cc2C1
[14]
  IC50: 45 nM

## Cc1nnnn1-c1ccc(C(=O)NCc2cccc(C(=O)NC3=NC4CCN(C)CC4S3)c2)cc1 (stereo unspecified)
[4]
  IC50: 6 nM

## O=C(Cc1ccccc1Cl)Nc1ccc(-c2cn[nH]c2)cc1OCCN1CCCC1
[4]
  IC50: 9 nM

## O=C(OCC1CCCO1)c1cccc(CN2CCCC(Nc3ccc4[nH]ncc4c3)C2)c1 (stereo unspecified)
[16]
  IC50: 240 nM
[17]
  half-life at 1 µM: < 5 min
[18]
  IC50: 3 nM

## COc1cccc(CNC(=O)c2n[nH]c3ccc(-c4cn[nH]c4)cc23)c1
[2]
  IC50: 67 nM

## COc1cccc(CNC(=O)c2n[nH]c3cc(-c4cn[nH]c4)ccc23)c1
[1]
  IC50: 3340 nM
[2]
  IC50: < 1 nM

## O=C(Nc1ccc(-c2cn[nH]c2)cc1)[C@@H]1CNC[C@H]1c1ccccc1
[4]
  IC50: 33 nM

## NC(=O)c1cc(F)c(N[C@H]2CC[C@H](N)CC2)cc1F
[4]
  IC50: 26 nM

## COc1cccc(CNC(=O)c2nn(C)c3cc(-c4cn[nH]c4)ccc23)c1
[1]
  IC50: 1520 nM
[2]
  IC50: < 1 nM

## Nc1nc(Nc2ccc(Oc3ccc4[nH]ncc4c3)c(F)c2)cc(N2C[C@@H]3CCCN[C@@H]3C2)n1
[13]
  IC50: 6 nM

## COc1nc(Nc2ccc3[nH]ncc3c2)nc(N2CCNCC2)n1
[19]
  IC50: 20 nM

## COc1cccc(CNC(=O)c2c[nH]c3ccc(-c4cn[nH]c4)cc23)c1
[2]
  IC50: 67 nM

## Cc1c(Oc2ccc(CN)cc2F)ccc2c1B(O)OC2
[9]
  IC50: 250 nM
[10]
  IC50: 220 nM

## NC[C@@](O)(c1ccc(Cl)cc1)c1ccc(-c2cn[nH]c2)cc1 [AT-13148]
[20]
  IC50: 38 nM
[4]
  IC50: < 10 nM
[21]
  IC50: 402 nM
[1]
  IC50: < 10 nM
[22]
  IC50: 85 nM
[23]
  IC50: < 10 nM
[5]
  IC50: < 10 nM

## Cc1c[nH]c2nccc(Oc3c(F)cc(Nc4cc(Cl)nc(N)n4)cc3F)c12 [BAY-549]
[24]
  bioavailability: 48%
[25]
  half-life: 1.2 h
[26]
  CL/F: 28.3 mL/min/kg

## O=c1[nH]ccc2cc(OC3CCNCC3)ccc12 [SAR-407899 FREE BASE]
[27]
  Ki: 36 nM
